Laboratory results reported in US7767398B2, “Means and methods for diagnosing and treating affective disorders” (Affectis Pharmaceuticals AG, priority 2003, dated 2010).

Columns and labels:
mice = experiment: Porsolt's forced swim test; type: in vivo, mouse; settings: 50 μM BzATP, 1 μl each side intrahippocampal, 24 hours after injection, DBA/2OIa mice
Procedure: Further validation of role of P2X7R in affective disorders was performed by examining its expression pattern in response to stress and treatment with antidepressant drugs. […] In parallel, a control group of mice was given vehicle solution (i.e. without paroxetine) using the same treatment regiment while a second control group of mice was left undisturbed and stress-free (i.e. untreated) during the same period of the experiments. At the end of the long-term treatment, part of the mice of each experimental group were tested in the dark/light box (test of anxiety behaviour) and in the Porsolt's forced swim test (test of depressive-like behaviour) to confirm the effectiveness of the treatment (FIG. 5). […] The other part of the experimental groups (i.e. mice without test experience) were decapitated, brains rapidly removed and frozen at −80° C. until usage.
The effects of P2X7R inhibition on depressive-like behaviour was assessed 24 hours and 48 hours after infusion of siRNA, control or vehicle according to the standard test paradigm, the Porsolt's forced swim test (Porsolt et al., Arch. Int. Pharmacodym. 229 (1977), 327-336; Porsolt, Rev. Neurosci. 11 (2000), 53-58). […] Compared to vehicle application, no influence of control double stranded RNA (5′-[…]-3′) on floating behaviour (passive stress coping) was detected. […] This interpretation becomes moreover evident when the effects of antidepressants on passive stress coping behaviour in the forced swim test are visualized (FIG. 5). Passive stress coping behaviour increased after acute intrahippocampal injection (bilateral, dentate gyrus) of siRNA targeting P2X7R. The Porsolt's forced swim test is a standard test used to assess the effectiveness of antidepressants and it has been proven by many studies that the test is selectively sensitive for these effects, given that the right animal model is used. The paradigm has been widely used to test pharmaceutical compounds and to validate animal models of depression, which show an increase in passive behaviour as do the mice where P2X7R has been inhibited (siRNA).
The forced swim test is a standard test that measures primary stress-induced reductions in avoidance or escape, termed behavioural despair. The test is used to determine the effectiveness of antidepressants, test new pharmaceutical compounds and validate animal models of depression (Porsolt et al., Arch. Int. Pharmacodym. 229 (1977), 327-336; Porsolt, Rev. Neurosci. 11 (2000), 53-58; Rénéric et al., Behav. Brain Res. 136 (2002), 521-532; Page et al., Psychopharmacology 165 (2003), 194-201; Kelliher et al., Psychoneuroendocrinology 28 (2003), 332-347). The test consists of placing a mouse for a period of 5 minutes into a glass cylinder containing water. Under such circumstances, the mouse cannot touch the bottom of the cylinder and is thus forced to swim. Time, latency and frequency of struggling versus floating are scored as behavioural parameters. […] Increased struggling (i.e. active attempts to escape) indicates active coping behaviour that can be interpreted as an improvement of depression-like symptoms. For example, treatment with serotonergic antidepressants reduce the total time spent floating (Borsini, Neurosci. Biobehav. Rev. 19 (1995), 377-395; Redrobe and Bourin, Psychopharmacology 138 (1998), 198-206, and in parallel increases the time of active behaviour (i.e. swimming or struggling; Lucki et al., Psychopharmacology 155 (2001), 315-322).
The behaviour of individual mice was assessed using the Porsolt's forced swim test 24 hours after injection of vehicle solution, KN-62, or oATP. A pre-exposure of 5 minutes to the test was performed 15-17 minutes after administration of vehicle, KN-62, or oATP. A description of the Porsolt's forced swim test is given in example 9. […]

human P2X7R = molecular target: T1, human P2X7R (Homo sapiens, UniProt Q99572); experiment: Calcium entry in HT-22 cells overexpressing human P2X7R (Fluo-4 AM); type: cell-based; settings: 20 μM BzATP or 50 μM tenidap
T1 construct: expressed in transfected cells
T1 sequence (Q99572 1-595): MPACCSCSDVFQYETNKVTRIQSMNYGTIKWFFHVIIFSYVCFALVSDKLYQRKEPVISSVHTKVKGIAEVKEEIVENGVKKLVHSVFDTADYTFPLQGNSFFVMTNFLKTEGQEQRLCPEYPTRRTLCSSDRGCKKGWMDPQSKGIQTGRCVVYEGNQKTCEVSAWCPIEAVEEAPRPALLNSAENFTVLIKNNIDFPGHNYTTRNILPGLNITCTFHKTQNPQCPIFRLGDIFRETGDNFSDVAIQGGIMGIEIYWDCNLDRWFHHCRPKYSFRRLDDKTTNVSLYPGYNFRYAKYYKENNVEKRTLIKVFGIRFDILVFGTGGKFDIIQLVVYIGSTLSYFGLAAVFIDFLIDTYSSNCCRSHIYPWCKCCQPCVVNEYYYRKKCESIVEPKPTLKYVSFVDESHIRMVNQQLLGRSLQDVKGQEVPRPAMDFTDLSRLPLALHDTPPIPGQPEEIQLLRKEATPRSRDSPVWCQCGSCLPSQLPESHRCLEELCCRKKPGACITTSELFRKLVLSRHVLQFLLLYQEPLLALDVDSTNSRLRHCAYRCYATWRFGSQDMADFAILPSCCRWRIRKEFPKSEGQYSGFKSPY
Description: Yet another method for identifying P2X7R agonists was devised by generating a immortalised mouse cell line that overexpresses the human P2X7R gene under the control of the human cytomegalovirus (CMV) early promoter/enhancer region. The human P2X7R cDNA was inserted into the pcDNA3.1 vector (Invitrogen) and transfected into the mouse hippocampal cell line HT-22 using Lipofectamine (Invitrogen) according to the manufacturer's specifications. One day after transfection, culture medium containing 500 μg/ml G418 was added to the cells. Resistant clones were separately isolated and cultured 14 days after applying the selection medium.
The agonistic activity of a compound was evaluated by measuring calcium entry in the cells that overexpress the human P2X7R. Cells were cultured in 96 well plates and incubated at 37° C. with 5% C02 DMEM with 10% foetal calf serum (Gibco) until they reached confluence. Cells were then loaded for one hour with 10 μM of Fluo4 AM (Molecular Probes). Fluo-4 AM is a fluorescent dye that binds to intracellular calcium. […] Agonist activity was detected by measuring an increase in calcium influx which results in increased binding to Fluo4 AM and increased fluorescence. Changes in fluorescence signal are measured using a Fluostar Optima plate reader (BMG biotech). […] Thus, both compound stimulated the activity of P2X7R which results in an influx of ions into the cells.

In the case of “2′-3′-O-(4-Benzoylbenzoyl)adenosine 5′-triphosphate [BzATP]”, the “passive behaviour (time, frequency, latency of floating) in the forced swim test” value (mice; latency and frequency of floating statistically significant) is reported as “decrease”, the “active escape attempts (time, frequency, latency of struggling) in the forced swim test” value (mice; time struggling statistically significant) is reported as “increase” and the “calcium influx (Fluo-4 AM fluorescence intensity)” value (human P2X7R) is reported as “rapid increase in fluorescence intensity”.
